These results are taken from ChEMBL document CHEMBL1139194, “Antitumor agents. 256. Conjugation of paclitaxel with other antitumor agents: evaluation of novel conjugates as cytotoxic agents” (Bioorg Med Chem Lett, 2007).

Data set [1] concerns MCF7. Kind of data set: Cytotoxicity against human MCF7 cells at 20 ug/mL by sulforhodamine B assay. The data set is classed as functional. For orientation: The SRB assay estimates cell density from bound dye.
Data set [2] is described as follows: Cytotoxicity against multi drug-resistant human KBVIN cells at 20 ug/mL by sulforhodamine B assay. The data set is classed as functional.
The test system of data set [3] is 1A9. Kind of data set: Cytotoxicity against human 1A9 cells at 20 ug/mL by sulforhodamine B assay. Format: functional.
Data set [4] concerns DU-145. Kind of data set: Cytotoxicity against human DU145 cells at 20 ug/mL by sulforhodamine B assay. The data set is classed as functional.
Data set [5] relates to KB. Briefly: Cytotoxicity against human KB cells at 20 ug/mL by sulforhodamine B assay. The data set is classed as functional.
For data set [6], the system named is PC-3. Briefly: Cytotoxicity against human PC3 cells at 20 ug/mL by sulforhodamine B assay. The data set is classed as functional.
For data set [7], the system named is A549. Kind of data set: Cytotoxicity against human A549 cells at 20 ug/mL by sulforhodamine B assay. The data set is classed as functional.
Data set [8] relates to LNCaP. Kind of data set: Cytotoxicity against human LNCAP cells at 20 ug/mL by sulforhodamine B assay. The data set is classed as functional.
The test system of data set [9] is 1A9. Kind of data set: Cytotoxicity against human 1A9 cells by sulforhodamine B assay. Format: functional. Particulars: read-out: ED50 (the source's name).
In data set [10] the test system is A549. Briefly: Cytotoxicity against human A549 cells by sulforhodamine B assay. The data set is classed as functional. The following applies: read-out: ED50 (the source's name).
For data set [11], the system named is LNCaP. Briefly: Cytotoxicity against human LNCAP cells by sulforhodamine B assay. The following applies: read-out: ED50 (the source's name). Format: functional.
Data set [12] concerns MCF7. Briefly: Cytotoxicity against human MCF7 cells by sulforhodamine B assay. The data set is classed as functional. Particulars: read-out: ED50 (the source's name).
The subject of data set [13] is KB. Kind of data set: Cytotoxicity against human KB cells by sulforhodamine B assay. The following applies: read-out: ED50 (the source's name). Format: functional.
The subject of data set [14] is PC-3. Briefly: Cytotoxicity against human PC3 cells by sulforhodamine B assay. Format: functional. Particulars: read-out: ED50 (the source's name).
Data set [15] concerns DU-145. Kind of data set: Cytotoxicity against human DU145 cells by sulforhodamine B assay. The data set is classed as functional. The following applies: read-out: ED50 (the source's name).
For another data set, the system named is HUVEC. Briefly: Antiangiogenesis activity against HUVEC cells. The data set is classed as functional. Particulars: Homo sapiens, read-out: ED50 (the source's name).
A short description of data set [16]: Cytotoxicity against human MRC5 cells at 10 ug/mL by sulforhodamine B assay. The data set is classed as cell-based. The following applies: read-out: Inhibition.
A short description of data set [17]: (§1) Cytotoxicity against multi drug-resistant human KBVIN cells by sulforhodamine B assay. The data set is classed as functional. Particulars: read-out: ED50 (the source's name).
For a further data set, the system named is KBVIN. The description is as §1. Format: functional.
Data set [18] is described as follows: Cytotoxicity against human MRC5 cells by sulforhodamine B assay. The following applies: read-out: ED50 (the source's name). The data set is classed as cell-based.

Active and inactive are the calls of the source. The rule behind the calls is not given here. Some results are limits rather than exact numbers.

For `CC1(C)[C@@H](O)CC[C@]2(C)[C@H]3C(=O)C=C4[C@@H]5C[C@@](C)(C(=O)O)CC[C@]5(C)CC[C@@]4(C)[C@]3(C)CC[C@@H]12` [ENOXOLONE], the inhibition at 20 µg/mL (with MCF7 [1]; in data set [2]; in the data set on 1A9 [3]; in the data set on DU-145 [4]; in the data set with KB [5]; in the data set on PC-3 [6]) was less than 50% each time. The inhibition at 20 µg/mL in the data set with A549 [7] and with LNCaP [8] was less than 50% in each case.

With `COc1cc2c(c(OC)c1OC(=O)CCC(=O)O[C@@H](C(=O)O[C@H]1C[C@@]3(O)[C@@H](OC(=O)c4ccccc4)[C@@H]4[C@]5(OC(C)=O)CO[C@@H]5C[C@H](O)[C@@]4(C)C(=O)[C@H](OC(C)=O)C(=C1C)C3(C)C)[C@@H](NC(=O)c1ccccc1)c1ccccc1)-c1ccc(OC)c(=O)cc1[C@@H](NC(C)=O)CC2`, the EC50 in the data set with 1A9 [9] amounted to 10.6 nM; in the data set with A549 [10], 27.3 nM; with LNCaP [11], 12.9 nM; with MCF7 [12] it was 26.5 nM; with KB [13] it was 19 nM; in the data set with PC-3 [14], 50.7 nM. In addition, the values for the EC50 in the data set with DU-145 [15] and in the data set on HUVEC were 31.9 nM and 13.8 nM, respectively. In data set [2], this molecule yielded an inhibition at 20 µg/mL of less than 50%.

Take `COc1cc([C@@H]2c3cc4c(cc3[C@@H](Nc3ccc(C(=O)NCCC(=O)O[C@@H](C(=O)O[C@H]5C[C@@]6(O)[C@@H](OC(=O)c7ccccc7)[C@@H]7[C@]8(OC(C)=O)CO[C@@H]8C[C@H](O)[C@@]7(C)C(=O)[C@H](OC(C)=O)C(=C5C)C6(C)C)[C@@H](NC(=O)c5ccccc5)c5ccccc5)cc3)[C@H]3COC(=O)[C@H]23)OCO4)cc(OC)c1O`: in [16], the cytotoxicity at 10 ug/mL is less than 50%. The EC50 in the data set on 1A9 [9] was 2.9 nM; in the data set with A549 [10], 10.1 nM; in the data set with LNCaP [11] it was 4.2 nM; with MCF7 [12], 6.4 nM; with KB [13], 8.4 nM; with PC-3 [14] it was 12.1 nM. For the same molecule, the EC50 in the data set on DU-145 [15] was found to be 8.6 nM; in the data set on HUVEC, 4.93 nM; in data set [17] it was 9960 nM.

With `COc1cc([C@@H]2c3cc4c(cc3[C@@H](Nc3ccc(C(=O)NCCCC(=O)O[C@H]5C[C@H]6OC[C@@]6(OC(C)=O)[C@H]6[C@H](OC(=O)c7ccccc7)[C@]7(O)C[C@H](OC(=O)[C@H](O)[C@@H](NC(=O)c8ccccc8)c8ccccc8)C(C)=C([C@@H](OC(C)=O)C(=O)[C@]56C)C7(C)C)cc3)[C@H]3COC(=O)[C@H]23)OCO4)cc(OC)c1O`, the EC50 in the data set with 1A9 [9] amounted to 104 nM; in the data set on A549 [10], 1320 nM; with MCF7 [12], 125 nM; in the data set with KB [13], 347 nM. For the same molecule, the outcome with KBVIN was inactive.

As for `COc1cc([C@@H]2c3cc4c(cc3[C@@H](Nc3ccc(C(=O)NCCC(=O)O[C@H]5C[C@H]6OC[C@@]6(OC(C)=O)[C@H]6[C@H](OC(=O)c7ccccc7)[C@]7(O)C[C@H](OC(=O)[C@H](O)[C@@H](NC(=O)c8ccccc8)c8ccccc8)C(C)=C([C@@H](OC(C)=O)C(=O)[C@]56C)C7(C)C)cc3)[C@H]3COC(=O)[C@H]23)OCO4)cc(OC)c1O`, the EC50 in the data set on 1A9 [9] worked out at 20.7 nM; with A549 [10], 45.6 nM; in the data set on LNCaP [11] it was 22.1 nM; in the data set with MCF7 [12], 43.9 nM; in the data set on KB [13], 31.6 nM; in the data set with PC-3 [14], 86.3 nM. The EC50 in the data set on DU-145 [15] is 83.4 nM. The same molecule yielded an inhibition at 20 µg/mL in [2] of less than 50%. For the same molecule, the CC50 in [18] came to 3280 nM.

Regarding `COc1cc2c(c(OC)c1OC(=O)CCC(=O)O[C@@H](C(=O)O[C@H]1C[C@@]3(O)[C@@H](OC(=O)c4ccccc4)[C@@H]4[C@]5(OC(C)=O)CO[C@@H]5C[C@H](O)[C@@]4(C)C(=O)[C@H](OC(C)=O)C(=C1C)C3(C)C)[C@@H](NC(=O)c1ccccc1)c1ccccc1)-c1ccc(SC)c(=O)cc1[C@@H](NC(C)=O)CC2`, the EC50 was found to be 10.3 nM in the data set on 1A9 [9]; 23.2 nM in the data set on A549 [10]; 19.5 nM in the data set on LNCaP [11]; 24.7 nM in the data set on MCF7 [12]; 17 nM with KB [13]; 71.8 nM with PC-3 [14]. The EC50 in the data set on DU-145 [15] was 29.8 nM; in the data set with HUVEC, 9.33 nM. Besides, the inhibition at 20 µg/mL in data set [2] is less than 50%.

The inhibition is the change of the read-out against control, counted positive when it falls. Low readings indicate little suppression, high ones strong suppression.
